Data as given in patent publication US4868186A, “Theophyllinemethyldithiolan and theophyllinemethyldithianyl derivatives having antibronchospastic antitussive and mucolytic activity” (Istituto Biologico Chemioterapico ABC S.p.A., priority 1986, dated 1989).
Converted amounts (≈) assume the structure as drawn. Structures can show the parent of a compound that is named as a salt. Where two headings read alike, the source gives them in different places. One block for each compound: values may come before it.

Assays:
[1] = system: completely removed guinea-pig tracheas; test: Constrictive action of histamine di-hydrochloride on completely removed guinea-pig tracheas (in vitro); type: cell-based; conditions: for ED50 / IC50: Table I; for ED50 / % inhibition / IC50: histamine di-hydrochloride 5.10^-6 g/ml; for IC50: Cavia porcellus, read-out: ED50 (the source's name)
Description: Thirty white guinea-pigs were used, from which the tracheas were removed, after they had been killed by ethereal anaesthesia. The tracheas were placed in a 50 ml bath of Krebs solution, suitably oxygenated and thermoregulated at a temperature of 37° C. The lower end of the trachea was closed while the upper end was connected to a polythene tube connected to a transducer for measuring volume differences connected to a polygraph, according to D. Jamieson's method 1962, Brit. J. Pharmacol. and Chemiotherapy, 19, 286, partially modified. Both the trachea and the polythene tube were filled with Krebs solution. The responses of the tracheas thus prepared to acetylcholine and histamine were investigated before and after the addition of the product to the bath.

[2] = system: bronchospasm by acetylcholine chloride in guinea-pigs; test: Bronchospasm by acetylcholine chloride (0.075 mg/kg i.v.) in guinea-pigs (Konzett and Roesler); type: in vivo, guinea-pig; conditions: for ED50: Cavia porcellus, iv
Description: Exp. Path. […] J. Pharmcol. 15, 290. Male guinea-pigs weighing 300-450 g were used under urethane anaesthesia (lg/kg i.p.). The animals were suitably prepared by insertion of a cannula in the jugular vein for intravenous administrations while the trachea was connected to an artificial respiration pump (Palmer) adapted for small animals, which was operated at a frequency of approximately 70 insufflations per minute. The pneumogram was recorded by means of a transducer on a polygraph (Battaglia-Rangoni).

rabbits = test: Mucolytic activity: mucoproduction in rabbits before and after oral treatment; type: in vivo, rabbit; conditions: for Mucoproduction (mg/h) M ± SD 4-0 h (before the treatment): baseline before treatment; for mucolytic activity (in words): rabbits, oral
Description: (b) Mucolytic activity of compound 1, doxophylline and bromohexyne hydrochloride For these tests the method described by Perry, W. F., Boyd, E. M., J. Pharmacol., 1941, 73, 65 and suitably modified by us was used. New Zealand-type, male, white rabbits weighing 2.8-3.5 kg. were used. Pre-operative preparation consisted of treatment with 9 mg/kg i.m. of a non-stupefying central analgesic ([…] local anaesthesia in the tracheal region with xylocaine (0.9 mg/kg - 1% solution). The surgical operation commenced 15-20 minutes after the pharmacological pre-treatment. The trachea was exposed and a hole approximately 5-6 mm in diameter was made in its ventral side. The trachea was then introduced into the lower arm of a three-way polypropylene cannula, which had been cut suitably, longitudinally so as to connect the hole made in the trachea with the aperture of the third arm (vertical) of the cannula, and thus put it into communication with the outside. Thus, the cannula surrounded the outside of the trachea and was fixed "in loco" with sterile surgical silk thread. A polypropylene container was attached to the vertical arm of the cannula for collecting the mucous (capacity approximately 2 ml), and the wound was then sutured. The tracheal mucous was collected for four hours before the oral administration of the substance under test and for four hours after the treatment.

[3] = General statements on side effects, habituation, toxicity and therapeutic index; conditions: among compounds (1)-(4)
in vivo = conditions: po
Description: The products were administered in a 0.5% aqueous suspension of carboxymethylcellulose at a concentration of 1 ml/100 g of body weight.

[4] = legend of FIG. 2, unit inferred, read-out: ED 50

SMILES: Cn1c(=O)c2c(ncn2CC2SCC[S+]2[O-])n(C)c1=O (centres unmarked) [COMPOUND 4, 7-[2'-(1',3'-dithiolanyl)-methyl]-theophylline sulphoxide]
ED50 [1]: 2241.8 10^-6 g/ml | % inhibition ([1]; concentration 100 x 10^-6 g/ml): -7.5% | % inhibition ([1]; concentration 200 x 10^-6 g/ml): -12.5% | % inhibition ([1]; concentration 300 x 10^-6 g/ml): -20.4% | % inhibition ([1]; concentration 400 x 10^-6 g/ml): -27.8%

SMILES: Cn1c(=O)c2[nH]cnc2n(C)c1=O [AMINOPHYLLINE, aminophylline]
ED50 [2]: 4.97 mg/kg | ED50 ([2]; read-out: ED50 mg/kg i.v.): 4.97 mg/kg | % Variation in endobronchial pressure after administration of acetylcholine chloride (0,075 mg/kg i.v.) M ± SE ([2]; dose 0.5 mg/kg i.v.): 158.7 ± 24.6% | % inhibition vs. controls ([2]; dose 0.5 mg/kg i.v.): -12.5% | % Variation in endobronchial pressure after administration of acetylcholine chloride (0,075 mg/kg i.v.) M ± SE ([2]; dose 1 mg/kg i.v.): 135.7 ± 21.2% | % inhibition vs. controls ([2]; dose 1 mg/kg i.v.): -25.2% | % Variation in endobronchial pressure after administration of acetylcholine chloride (0,075 mg/kg i.v.) M ± SE ([2]; dose 5 mg/kg i.v.): 117.0 ± 17.4% | % inhibition vs. controls ([2]; dose 5 mg/kg i.v.): -35.5% | % Variation in endobronchial pressure after administration of acetylcholine chloride (0,075 mg/kg i.v.) M ± SE ([2]; dose 10 mg/kg i.v.): 49.9 ± 10.2% | % inhibition vs. controls ([2]; dose 10 mg/kg i.v.): -72.5% | IC50 [1]: 206 µg/mL (≈ 1140 µM) | % inhibition ([1]; concentration 100 x 10^-6 g/ml): -10.9% | % inhibition ([1]; concentration 150 x 10^-6 g/ml): -18.7% | % inhibition ([1]; concentration 200 x 10^-6 g/ml): -46.15% | % inhibition ([1]; concentration 300 x 10^-6 g/ml): -79.4%

IC50 [1]: 837 µg/mL (≈ 2680 µM)
SMILES: Cn1c(=O)c2c(ncn2CC2SCCCS2)n(C)c1=O [COMPOUND 2, 7-[2'-(1',3'-dithianyl)-methyl]-theophylline]
% inhibition ([1]; concentration 100 x 10^-6 g/ml): -12.0% | % inhibition ([1]; concentration 200 x 10^-6 g/ml): -18.5% | % inhibition ([1]; concentration 250 x 10^-6 g/ml): -26.5% | % inhibition ([1]; concentration 400 x 10^-6 g/ml): -38.5%

SMILES: CC(=O)N[C@@H](CS)C(=O)O [N--acetylcysteine, reference compound]
Mucoproduction (mg/h) M ± SD 4-0 h (before the treatment) (rabbits; group dosed 400 mg/kg os): 27.7 ± 5.50 mg/h | % Variation with respect to its own base (rabbits; dose 400 mg/kg os): +16.21% | Mucoproduction (mg/h) M ± SD 0-4 h (after the treatment) (rabbits; dose 400 mg/kg os): 32.19 ± 3.89 mg/h

SMILES: CN(Cc1cc(Br)cc(Br)c1N)C1CCCCC1 [BROMOHEXYNE, bromohexyne hydrochloride, reference compound]
Mucoproduction (mg/h) M ± SD 4-0 h (before the treatment) (rabbits; group dosed 400 mg/kg os): 28.9 ± 7.82 mg/h | % Variation with respect to its own base (rabbits; dose 400 mg/kg os): +34.98% | Mucoproduction (mg/h) M ± SD 0-4 h (after the treatment) (rabbits; dose 400 mg/kg os): 39.01 ± 4.34 mg/h

SMILES: Cn1c(=O)c2c(ncn2CC2SCCS2)n(C)c1=O [COMPOUND 1, 7-[2'-(1',3'-dithiolanyl)-methyl]-theophylline]
Mucoproduction (mg/h) M ± SD 4-0 h (before the treatment) (rabbits; group dosed 10 mg/kg os): 30.6 ± 9.43 mg/h | Mucoproduction (mg/h) M ± SD 4-0 h (before the treatment) (rabbits; group dosed 30 mg/kg os): 27.2 ± 5.22 mg/h | Mucoproduction (mg/h) M ± SD 4-0 h (before the treatment) (rabbits; group dosed 100 mg/kg os): 29.7 ± 4.95 mg/h | mucolytic activity compared with bromohexyne hydrochloride (rabbits; compound at 100 mg/kg vs bromohexyne hydrochloride at 400 mg/kg): more active than bromohexyne hydrochloride at a dose of 400 mg/kg | % Variation with respect to its own base (rabbits; dose 10 mg/kg os): +13.95% | Mucoproduction (mg/h) M ± SD 0-4 h (after the treatment) (rabbits; dose 10 mg/kg os): 34.87 ± 10.25 mg/h | % Variation with respect to its own base (rabbits; dose 30 mg/kg os): +26.95% | Mucoproduction (mg/h) M ± SD 0-4 h (after the treatment) (rabbits; dose 30 mg/kg os): 34.53 ± 4.16 mg/h | % Variation with respect to its own base (rabbits; dose 100 mg/kg os): +57.27% | Mucoproduction (mg/h) M ± SD 0-4 h (after the treatment) (rabbits; dose 100 mg/kg os): 46.71 ± 8.82 mg/h | mucolytic activity (in words) (rabbits): dose-related mucolytic activity | ED50 ([2]; Table II, i.v., read-out: ED50 mg/kg i.v.): 0.99 mg/kg | ED50 [2, 4]: 0.996 mg/kg | % Variation in endobronchial pressure after administration of acetylcholine chloride (0,075 mg/kg i.v.) M ± SE ([2]; dose 0.1 mg/kg i.v.): 166.0 ± 22.4% | % inhibition vs. controls ([2]; dose 0.1 mg/kg i.v.): -8.5% | % Variation in endobronchial pressure after administration of acetylcholine chloride (0,075 mg/kg i.v.) M ± SE ([2]; dose 0.5 mg/kg i.v.): 145.1 ± 18.7% | % inhibition vs. controls ([2]; dose 0.5 mg/kg i.v.): -20.0% | % Variation in endobronchial pressure after administration of acetylcholine chloride (0,075 mg/kg i.v.) M ± SE ([2]; dose 1 mg/kg i.v.): 87.1 ± 15.2% | % inhibition vs. controls ([2]; dose 1 mg/kg i.v.): -52.0% | % Variation in endobronchial pressure after administration of acetylcholine chloride (0,075 mg/kg i.v.) M ± SE ([2]; dose 2 mg/kg i.v.): 51.7 ± 6.5% | % inhibition vs. controls ([2]; dose 2 mg/kg i.v.): -71.5% | antibronchospastic effect relative to aminophylline ([2]; from Table II): approximately five times that of aminophylline | antibronchospastic effect relative to doxophylline ([2]; from Table II): approximately twice that of doxophylline | therapeutic index (in words) [3]: most favourable therapeutic index | IC50 [1]: 126 µg/mL (≈ 423 µM) | % inhibition ([1]; concentration 50 x 10^-6 g/ml): -17.2% | % inhibition ([1]; concentration 100 x 10^-6 g/ml): -32.5% | % inhibition ([1]; concentration 200 x 10^-6 g/ml): -62.5% | % inhibition ([1]; concentration 300 x 10^-6 g/ml): -95.0% | activity in vitro, ranking among the compounds ([1]; on the basis of the results obtained in vitro): the most active | LD50 at 480 h (in vivo; mouse): 1510 mg/kg | LD50 at 480 h (in vivo; rat): 1840 mg/kg

SMILES: Cn1c(=O)c2c(ncn2CC2SCC[S+]2[O-])n(C)c1=O (centres unmarked) [COMPOUND 3, 7-[2'-(1',3'-dithiolanyl)-methyl]-theophylline sulphoxide]
ED50 [1]: 530.0 10^-6 g/ml | % inhibition ([1]; concentration 100 x 10^-6 g/ml): -14.5% | % inhibition ([1]; concentration 200 x 10^-6 g/ml): -21.5% | % inhibition ([1]; concentration 300 x 10^-6 g/ml): -35.4% | % inhibition ([1]; concentration 400 x 10^-6 g/ml): -47.5%

IC50 [1]: 175 µg/mL (≈ 657 µM)
SMILES: Cn1c(=O)c2c(ncn2CC2OCCO2)n(C)c1=O [DOXOPHYLLINE, 7-[2'-(1',3'-dioxolanyl)-methyl]-theophylline, reference compound]
Mucoproduction (mg/h) M ± SD 4-0 h (before the treatment) (rabbits; group dosed 100 mg/kg os): 29.8 ± 5.80 mg/h | % Variation with respect to its own base (rabbits; dose 100 mg/kg os): +7.71% | Mucoproduction (mg/h) M ± SD 0-4 h (after the treatment) (rabbits; dose 100 mg/kg os): 32.10 ± 8.26 mg/h | mucolytic activity (in words) (rabbits): no mucolytic activity | ED50 [2, 4]: 2.02 mg/kg | % Variation in endobronchial pressure after administration of acetylcholine chloride (0,075 mg/kg i.v.) M ± SE ([2]; dose 0.5 mg/kg i.v.): 153.8 ± 18.4% | % inhibition vs. controls ([2]; dose 0.5 mg/kg i.v.): -15.2% | % Variation in endobronchial pressure after administration of acetylcholine chloride (0,075 mg/kg i.v.) M ± SE ([2]; dose 1 mg/kg i.v.): 133.3 ± 14.8% | % inhibition vs. controls ([2]; dose 1 mg/kg i.v.): -26.5% | % Variation in endobronchial pressure after administration of acetylcholine chloride (0,075 mg/kg i.v.) M ± SE ([2]; dose 2 mg/kg i.v.): 88.5 ± 11.3% | % inhibition vs. controls ([2]; dose 2 mg/kg i.v.): -51.2% | % Variation in endobronchial pressure after administration of acetylcholine chloride (0,075 mg/kg i.v.) M ± SE ([2]; dose 4 mg/kg i.v.): 56.4 ± 8.8% | % inhibition vs. controls ([2]; dose 4 mg/kg i.v.): -68.9% | % inhibition ([1]; concentration 40 x 10^-6 g/ml): 0% | % inhibition ([1]; concentration 200 x 10^-6 g/ml): -54% | % inhibition ([1]; concentration 400 x 10^-6 g/ml): -78% | % inhibition ([1]; concentration 800 x 10^-6 g/ml): -100%
